Laboratory results reported in US20170190671A1, “BIS(ARYL)CATECHOL DERIVATIVES AS HERBICIDES” (E I DU PONT DE NEMOURS AND COMPANY, priority 2014, published 2017).

Assays:
Assay type in all cases: in vivo
[1] = test system: johnsongrass (Sorghum halepense); test: Test C preemergence; conditions: Sorghum halepense, pre-emergence, 336 h, scale 0 to 100, read-out: Plant response rating, Johnsongrass
How it was run: (§1)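 Greenhouse test; preemergence on seeded loam-sand soil or spray on 1- to 4-leaf plants; solvent + surfactant vehicle; 13-15 day hold; visual comparison with controls; 0 (no effect)-100 (complete control).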

[2] = test system: galium (catchweed bedstraw, Galium aparine); test: Test C preemergence; conditions: Galium, pre-emergence, 336 h, scale 0 to 100, read-out: Plant response rating, Galium
How it was run: as §1

[3] = test system: barnyardgrass (Echinochloa crus-galli); test: Test C preemergence; conditions: Echinochloa crus-galli, pre-emergence, read-out: Plant response rating, Barnyardgrass
How it was run: as §1

[4] = test system: velvetleaf (Abutilon theophrasti); test: Test C postemergence; conditions: Abutilon theophrasti, post-emergence, Postemergence, scale 0 to 100, read-out: Plant response rating, Velvetleaf
[5] = test system: winter wheat (Triticum aestivum); test: Test C postemergence; conditions: Triticum aestivum, post-emergence, 336 h, Postemergence, scale 0 to 100, read-out: Plant response rating, Wheat
[6] = test system: blackgrass (Alopecurus myosuroides); test: Test C postemergence; conditions: Alopecurus myosuroides, post-emergence, 336 h, Postemergence, scale 0 to 100, read-out: Plant response rating, Blackgrass
[7] = test system: yellow nutsedge (Cyperus esculentus); test: Test C postemergence; conditions: Cyperus, post-emergence, 336 h, Postemergence, scale 0 to 100, read-out: Plant response rating, Nutsedge, Yellow
[8] = test system: ragweed (common ragweed, Ambrosia elatior); test: Test C postemergence; conditions: Ambrosia artemisiifolia, post-emergence, 336 h, Postemergence, scale 0 to 100, read-out: Plant response rating, Ragweed
wild oat (Avena fatua) = test: Test C postemergence; conditions: Avena fatua, post-emergence, Postemergence, scale 0 to 100, read-out: Plant response rating, Oat, Wild
[9] = test system: morningglory (Ipomoea coccinea); test: Test C postemergence; conditions: Ipomoea, post-emergence, 336 h, Postemergence, scale 0 to 100, read-out: Plant response rating, Morningglory
[10] = test system: lambsquarters (Chenopodium album); test: Test C postemergence; conditions: Chenopodium album, post-emergence, 336 h, Postemergence, scale 0 to 100, read-out: Plant response rating, Lambsquarters
[11] = test system: johnsongrass (Sorghum halepense); test: Test C postemergence; conditions: Sorghum halepense, post-emergence, 336 h, Postemergence, scale 0 to 100, read-out: Plant response rating, Johnsongrass
[12] = test system: galium (catchweed bedstraw, Galium aparine); test: Test C postemergence; conditions: Galium, post-emergence, 336 h, Postemergence, scale 0 to 100, read-out: Plant response rating, Galium
[13] = test system: chickweed (common chickweed, Stellaria media); test: Test C postemergence; conditions: Stellaria media, post-emergence, Postemergence, scale 0 to 100, read-out: Plant response rating, Chickweed
soybean (Glycine max) = test: Test C postemergence; conditions: Glycine max, post-emergence, Postemergence, scale 0 to 100, read-out: Plant response rating, Soybean
corn (Zea mays) = test: Test C postemergence; conditions: Zea mays, post-emergence, 336 h, Postemergence, scale 0 to 100
[14] = test system: oilseed rape (Brassica napus); test: Test C postemergence; conditions: Brassica napus, post-emergence, Postemergence, scale 0 to 100, read-out: Plant response rating, Oilseed Rape
[15] = test system: Italian ryegrass (Lolium multiflorum); test: Test C postemergence; conditions: Lolium multiflorum, post-emergence, 336 h, Postemergence, scale 0 to 100, read-out: Plant response rating, Ryegrass, Italian
[16] = test system: waterhemp (common waterhemp, Amaranthus rudis); test: Test C postemergence; conditions: Amaranthus tuberculatus, post-emergence, Postemergence, scale 0 to 100, read-out: Plant response rating, Waterhemp
[17] = test system: large (Lg) crabgrass (Digitaria sanguinalis); test: Test C postemergence; conditions: Digitaria sanguinalis, post-emergence, 336 h, Postemergence, scale 0 to 100, read-out: Plant response rating, Crabgrass, Large
[18] = test system: barnyardgrass (Echinochloa crus-galli); test: Test C postemergence; conditions: Echinochloa crus-galli, post-emergence, Postemergence, scale 0 to 100, read-out: Plant response rating, Barnyardgrass
[19] = test system: giant foxtail (Setaria faberii); test: Test C postemergence; conditions: Setaria faberi, post-emergence, 336 h, Postemergence, scale 0 to 100, read-out: Plant response rating, Foxtail, Giant

SMILES: Fc1cccc(Oc2ncc(Cl)cn2)c1Oc1ncc(Cl)cn1 [Compound 21, 2,2′-[[3-fluoro-1,2-phenylene]bis(oxy)]bis[5-chloropyrimidine]]
- pest or weed control at 31 g/ha ([1]; 31 g ai/ha, preemergence): 50%
- pest or weed control at 62 g/ha ([1]; 62 g ai/ha, preemergence): 85%
- pest or weed control at 125 g/ha ([1]; 125 g ai/ha, preemergence): 98%
- pest or weed control at 16 g/ha ([1]; Preemergence, 16 g ai/ha): 5%
- pest or weed control at 31 g/ha ([2]; 31 g ai/ha, preemergence): 100%
- pest or weed control at 62 g/ha ([2]; 62 g ai/ha, preemergence): 100%
- pest or weed control at 125 g/ha ([2]; 125 g ai/ha, preemergence): 100%
- pest or weed control at 16 g/ha ([2]; Preemergence, 16 g ai/ha): 98%
- pest or weed control at 31 g/ha ([3]; 31 g ai/ha, preemergence, scale 0 to 100): 85%
- pest or weed control at 62 g/ha ([3]; 62 g ai/ha, preemergence, scale 0 to 100): 100%
- pest or weed control at 125 g/ha ([3]; 125 g ai/ha, preemergence, scale 0 to 100): 100%
- pest or weed control at 16 g/ha ([3]; Preemergence, 16 g ai/ha, scale 0 to 100 (0 no effect, 100 complete control)): 35%
- pest or weed control at 31 g/ha ([4]; 31 g ai/ha): 50%
- pest or weed control at 62 g/ha ([4]; 62 g ai/ha): 65%
- pest or weed control at 125 g/ha ([4]; 125 g ai/ha): 70%
- plant injury at 31 g/ha ([5]; 31 g ai/ha): 0%
- plant injury at 62 g/ha ([5]; 62 g ai/ha): 0%
- plant injury at 125 g/ha ([5]; 125 g ai/ha): 5%
- pest or weed control at 16 g/ha ([6]; 16 g ai/ha): 5%
- pest or weed control at 31 g/ha ([6]; 31 g ai/ha): 5%
- pest or weed control at 62 g/ha ([6]; 62 g ai/ha): 20%
- pest or weed control at 125 g/ha ([6]; 125 g ai/ha): 70%
- pest or weed control at 31 g/ha ([7]; 31 g ai/ha): 5%
- pest or weed control at 62 g/ha ([7]; 62 g ai/ha): 5%
- pest or weed control at 125 g/ha ([7]; 125 g ai/ha): 5%
- pest or weed control at 31 g/ha ([8]; 31 g ai/ha): 30%
- pest or weed control at 62 g/ha ([8]; 62 g ai/ha): 60%
- pest or weed control at 125 g/ha ([8]; 125 g ai/ha): 95%
- pest or weed control at 31 g/ha (wild oat (Avena fatua); 31 g ai/ha): 0%
- pest or weed control at 62 g/ha (wild oat (Avena fatua); 62 g ai/ha): 0%
- pest or weed control at 125 g/ha (wild oat (Avena fatua); 125 g ai/ha): 40%
- pest or weed control at 31 g/ha ([9]; 31 g ai/ha): 65%
- pest or weed control at 62 g/ha ([9]; 62 g ai/ha): 70%
- pest or weed control at 125 g/ha ([9]; 125 g ai/ha): 98%
- pest or weed control at 16 g/ha ([10]; 16 g ai/ha): 15%
- pest or weed control at 31 g/ha ([10]; 31 g ai/ha): 70%
- pest or weed control at 62 g/ha ([10]; 62 g ai/ha): 98%
- pest or weed control at 125 g/ha ([10]; 125 g ai/ha): 90%
- pest or weed control at 16 g/ha ([11]; 16 g ai/ha): 5%
- pest or weed control at 31 g/ha ([11]; 31 g ai/ha): 5%
- pest or weed control at 62 g/ha ([11]; 62 g ai/ha): 5%
- pest or weed control at 125 g/ha ([11]; 125 g ai/ha): 5%
- pest or weed control at 16 g/ha ([12]; 16 g ai/ha): 70%
- pest or weed control at 31 g/ha ([12]; 31 g ai/ha): 80%
- pest or weed control at 62 g/ha ([12]; 62 g ai/ha): 85%
- pest or weed control at 125 g/ha ([12]; 125 g ai/ha): 90%
- pest or weed control at 16 g/ha ([13]; 16 g ai/ha): 50%
- pest or weed control at 31 g/ha ([13]; 31 g ai/ha): 50%
- pest or weed control at 62 g/ha ([13]; 62 g ai/ha): 60%
- pest or weed control at 125 g/ha ([13]; 125 g ai/ha): 100%
- plant injury at 31 g/ha (soybean (Glycine max); 31 g ai/ha): 65%
- plant injury at 62 g/ha (soybean (Glycine max); 62 g ai/ha): 95%
- plant injury at 125 g/ha (soybean (Glycine max); 125 g ai/ha): 95%
- Corn plant response rating (crop injury, 0 = no effect, 100 = complete kill) at 16 g/ha (corn (Zea mays); 16 g ai/ha): 0%
- Corn plant response rating (crop injury, 0 = no effect, 100 = complete kill) at 31 g/ha (corn (Zea mays); 31 g ai/ha): 5%
- Corn plant response rating (crop injury, 0 = no effect, 100 = complete kill) at 62 g/ha (corn (Zea mays); 62 g ai/ha): 5%
- Corn plant response rating (crop injury, 0 = no effect, 100 = complete kill) at 125 g/ha (corn (Zea mays); 125 g ai/ha): 5%
- plant injury at 31 g/ha ([14]; 31 g ai/ha): 55%
- plant injury at 62 g/ha ([14]; 62 g ai/ha): 60%
- plant injury at 125 g/ha ([14]; 125 g ai/ha): 80%
- pest or weed control at 31 g/ha ([15]; 31 g ai/ha): 0%
- pest or weed control at 62 g/ha ([15]; 62 g ai/ha): 0%
- pest or weed control at 125 g/ha ([15]; 125 g ai/ha): 25%
- pest or weed control at 31 g/ha ([16]; 31 g ai/ha): 60%
- pest or weed control at 62 g/ha ([16]; 62 g ai/ha): 50%
- pest or weed control at 125 g/ha ([16]; 125 g ai/ha): 65%
- pest or weed control at 16 g/ha ([17]; 16 g ai/ha): 5%
- pest or weed control at 31 g/ha ([17]; 31 g ai/ha): 5%
- pest or weed control at 62 g/ha ([17]; 62 g ai/ha): 5%
- pest or weed control at 125 g/ha ([17]; 125 g ai/ha): 15%
- pest or weed control at 16 g/ha ([18]; 16 g ai/ha): 5%
- pest or weed control at 31 g/ha ([18]; 31 g ai/ha): 5%
- pest or weed control at 62 g/ha ([18]; 62 g ai/ha): 5%
- pest or weed control at 125 g/ha ([18]; 125 g ai/ha): 5%
- pest or weed control at 16 g/ha ([19]; 16 g ai/ha): 5%
- pest or weed control at 31 g/ha ([19]; 31 g ai/ha): 5%
- pest or weed control at 62 g/ha ([19]; 62 g ai/ha): 20%
- pest or weed control at 125 g/ha ([19]; 125 g ai/ha): 20%
